ChEMBL document CHEMBL1201862, “PubChem BioAssay data set” (2004)
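Following 48 hours of exposure in 96-well plates, responses at five concentrations were used to interpolate endpoints linearly. GI50 marks 50% less growth.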 Calls of active or inactive are those of the source. No stated cut-off is given here; in the data, active = GI50 up to about 1.1 µM and inactive = higher.

Experiments:
Assay in all cases: inhibition of tumour cell growth, NCI panel, 48 h
SNB-75 = test system: SNB-75
UACC-257 = test system: UACC-257
OVCAR-5 = test system: OVCAR-5
Malme-3M = test system: Malme-3M
SN12C = test system: SN12C
SF-295 = test system: SF-295
M14 = test system: M14
NCI-H460 = test system: NCI-H460
SK-MEL-5 = test system: SK-MEL-5
U-251 = test system: U-251
CCRF-CEM = test system: CCRF-CEM
HCT-116 = test system: HCT-116
HCT-15 = test system: HCT-15
OVCAR-4 = test system: OVCAR-4
LOX IMVI = test system: LOX IMVI
A498 = test system: A498
SR = test system: SR
MDA-MB-435 = test system: MDA-MB-435

| SMILES | GI50 (SNB-75) | GI50 (UACC-257) | GI50 (OVCAR-5) | GI50 (Malme-3M) | GI50 (SN12C) | GI50 (SF-295) | GI50 (M14) | GI50 (NCI-H460) | GI50 (SK-MEL-5) | GI50 (U-251) | GI50 (CCRF-CEM) | GI50 (HCT-116) | GI50 (HCT-15) | GI50 (OVCAR-4) | GI50 (LOX IMVI) | GI50 (A498) | GI50 (SR) | GI50 (MDA-MB-435) |
| --- | --- | --- | --- | --- | --- | --- | --- | --- | --- | --- | --- | --- | --- | --- | --- | --- | --- | --- |
| COC(=O)C1=C(C(=O)OC)C23CC1C1C(C(=O)OC)=C(C(=O)OC)C12C1C=CC3C2C(=O)OC(=O)C21 (stereo not given) | 7.1 µM (inactive) | 45.2 µM (inactive) | > 100 µM (inactive) | 44.5 µM (inactive) | 91.4 µM (inactive) | 53 µM (inactive) | 41.3 µM (inactive) | 34.7 µM (inactive) | 41.8 µM (inactive) | 48.2 µM (inactive) | 40.4 µM (inactive) | 37.7 µM (inactive) | 42.1 µM | 39.4 µM (inactive) |  |  |  |  |
| O=C(/C=C/c1ccccc1)CC(=O)CCC(=O)Nc1ccc(Cl)cc1 |  | 77.3 µM (inactive) | > 100 µM (inactive) | > 100 µM (inactive) | > 100 µM (inactive) | > 100 µM (inactive) | 28.3 µM (inactive) | 55.6 µM (inactive) | > 100 µM (inactive) | > 100 µM (inactive) | > 100 µM (inactive) | 37.8 µM (inactive) | > 100 µM | > 100 µM (inactive) | 39.2 µM (inactive) | > 100 µM (inactive) |  |  |
| Cc1ccc2c(c1)c(=O)c1c(NCCN(C)C)ccc3nnn2c31 | 4.6 µM (inactive) | 3.6 µM (inactive) | 2.59 µM (inactive) | 3.82 µM (inactive) | 3.45 µM (inactive) | 1.33 µM (inactive) | 4.25 µM (inactive) | 2.67 µM (inactive) | 3.06 µM (inactive) | 4.23 µM (inactive) | 2.21 µM (inactive) | 2.63 µM (inactive) | 4.18 µM | 3.6 µM (inactive) | 1.9 µM (inactive) | 4.88 µM (inactive) | 1.22 µM (inactive) |  |
| CC(=O)Nc1ccc(C(=O)NN2C(=O)C(Cl)C2c2ccccc2)cc1 (stereo not given) | > 100 µM (inactive) | > 100 µM (inactive) | > 100 µM (inactive) | > 100 µM (inactive) | > 100 µM (inactive) | > 100 µM (inactive) | > 100 µM (inactive) | > 100 µM (inactive) | > 100 µM (inactive) | > 100 µM (inactive) | > 100 µM (inactive) | > 100 µM (inactive) |  | > 100 µM (inactive) | > 100 µM (inactive) | > 100 µM (inactive) |  |  |
| COc1ccc(CNc2nc3ccc(C(F)(F)F)cc3nc2-c2ccccc2)cc1OC | 11 µM (inactive) | 25.2 µM (inactive) | > 100 µM (inactive) | 73.5 µM (inactive) | 46.2 µM (inactive) | 42.9 µM (inactive) |  | 21.2 µM (inactive) |  | > 100 µM (inactive) | 9.91 µM (inactive) | 20.7 µM (inactive) | 25.1 µM |  | 36.8 µM (inactive) |  | 6.64 µM (inactive) |  |
| CSC(C1c2ccccc2N(c2ccc(C)cc2)c2[nH]c(=O)n(C)c(=O)c21)S(=O)(=O)c1ccc(C)cc1 (stereo not given) | > 100 µM (inactive) | > 100 µM (inactive) | > 100 µM (inactive) | > 100 µM (inactive) | > 100 µM (inactive) | > 100 µM (inactive) | > 100 µM (inactive) | > 100 µM (inactive) | > 100 µM (inactive) | > 100 µM (inactive) | 71.6 µM (inactive) | > 100 µM (inactive) |  | 97.7 µM (inactive) | > 100 µM (inactive) | > 100 µM (inactive) |  |  |
| C[C@@]12[Se]c3ccccc3[C@]1(C)[Se]c1ccccc12 | 2.57 µM (inactive) |  | > 100 µM (inactive) | > 100 µM (inactive) | > 100 µM (inactive) | 38.7 µM (inactive) | > 100 µM (inactive) |  | 4.21 µM (inactive) | 54.6 µM (inactive) | 4.39 µM (inactive) | > 100 µM (inactive) |  | 68.2 µM (inactive) | 5.89 µM (inactive) |  |  |  |
| Nc1ccn(CCO)c(=O)n1 | > 100 µM (inactive) | > 100 µM (inactive) | > 100 µM (inactive) | > 100 µM (inactive) | > 100 µM (inactive) | > 100 µM (inactive) | > 100 µM (inactive) | > 100 µM (inactive) | > 100 µM (inactive) | > 100 µM (inactive) | > 100 µM (inactive) | > 100 µM (inactive) | > 100 µM | > 100 µM (inactive) | > 100 µM (inactive) | > 100 µM (inactive) | > 100 µM (inactive) |  |
| COc1ccc2nc(-c3ccc(N)cc3)sc2c1 | 44.8 µM (inactive) | > 100 µM (inactive) | > 100 µM (inactive) | > 100 µM (inactive) |  | 43.1 µM (inactive) | > 100 µM (inactive) | 54 µM (inactive) | 61.4 µM (inactive) | 35.6 µM (inactive) | 4.89 µM (inactive) | > 100 µM (inactive) | 50.5 µM | > 100 µM (inactive) |  | 53.1 µM (inactive) | 32.4 µM (inactive) | > 100 µM (inactive) |
| C[N+]1(CCNP(=S)(NCC[N+]2(C)Cc3c(ccc4c3OCO4)C3C2c2cc4c(cc2C[C@@H]3O)OCO4)NCC[N+]2(C)Cc3c(ccc4c3OCO4)C3C2c2cc4c(cc2C[C@@H]3O)OCO4)Cc2c(ccc3c2OCO3)C2C1c1cc3c(cc1C[C@H]2O)OCO3 (stereo not given in full) | < 0.00191 µM (active) | < 0.00191 µM (active) | < 0.00191 µM (active) | < 0.00191 µM (active) | < 0.00191 µM (active) | < 0.00191 µM (active) | < 0.00191 µM (active) | < 0.00191 µM (active) | < 0.00191 µM (active) | < 0.00191 µM (active) | 1.27 µM (inactive) | < 0.00191 µM (active) | < 0.00191 µM | < 0.00191 µM (active) | < 0.00191 µM (active) | < 0.00191 µM (active) | < 0.00191 µM (active) |  |
| C[N+](C)(C)CC1CCCCC1=O (stereo not given) | 20.5 µM (inactive) | 14.3 µM (inactive) |  | 19.6 µM (inactive) | > 100 µM (inactive) | > 100 µM (inactive) | 16.6 µM (inactive) | 55.3 µM (inactive) | 25.2 µM (inactive) | > 100 µM (inactive) | 4.56 µM (inactive) | 17.7 µM (inactive) | 14.1 µM |  | 14 µM (inactive) |  |  |  |
| CC(N)Cc1cccc(C(F)(F)F)c1 (stereo not given) | > 100 µM (inactive) | > 100 µM (inactive) | > 100 µM (inactive) | > 100 µM (inactive) | > 100 µM (inactive) | > 100 µM (inactive) | > 100 µM (inactive) | > 100 µM (inactive) | > 100 µM (inactive) | > 100 µM (inactive) | > 100 µM (inactive) | > 100 µM (inactive) | > 100 µM | > 100 µM (inactive) | > 100 µM (inactive) | > 100 µM (inactive) | > 100 µM (inactive) |  |
| c1ccc(OC2=NC3=S(S2)SC(Oc2ccccc2)=N3)cc1 | 24.3 µM (inactive) | 16.7 µM (inactive) | 20.5 µM (inactive) | 18.3 µM (inactive) | 20.6 µM (inactive) | 17 µM (inactive) | 18.4 µM (inactive) | 30.2 µM (inactive) | 18 µM (inactive) | 11.2 µM (inactive) | 9.59 µM (inactive) | 17.5 µM (inactive) | 18.9 µM |  | 19.6 µM (inactive) | 25.1 µM (inactive) |  |  |
| CC1=CC[C@@H](C(C)(C)O)C[C@@H]1O | > 5000 µM (inactive) | > 5000 µM (inactive) | > 5000 µM (inactive) | > 5000 µM (inactive) | > 5000 µM (inactive) | > 5000 µM (inactive) | > 5000 µM (inactive) | > 5000 µM (inactive) | > 5000 µM (inactive) | > 5000 µM (inactive) | > 5000 µM (inactive) | > 5000 µM (inactive) | > 5000 µM | > 5000 µM (inactive) | > 5000 µM (inactive) | > 5000 µM (inactive) | > 5000 µM (inactive) |  |
| C=CCSC[C@H](NC(=O)COc1ccccc1)C(=O)NC(C(=O)OCc1ccc([N+](=O)[O-])cc1)=C(C)C | 37.6 µM (inactive) | 52.4 µM (inactive) |  | > 100 µM (inactive) | > 100 µM (inactive) | 50.8 µM (inactive) | 47.9 µM (inactive) | 49.5 µM (inactive) | 27.6 µM (inactive) | 76.6 µM (inactive) | 45.5 µM (inactive) | > 100 µM (inactive) | 65.5 µM | 62.2 µM (inactive) | 64.9 µM (inactive) | 12.2 µM (inactive) |  |  |
| [O-]c1c2c(nn1-c1ccccc1)c1ccccc1c[n+]2Cc1ccccc1 | 50.4 µM (inactive) | > 100 µM (inactive) | > 100 µM (inactive) | > 100 µM (inactive) | > 100 µM (inactive) | > 100 µM (inactive) | > 100 µM (inactive) | > 100 µM (inactive) | > 100 µM (inactive) | > 100 µM (inactive) | > 100 µM (inactive) | > 100 µM (inactive) | > 100 µM | 78 µM (inactive) | > 100 µM (inactive) |  | > 100 µM (inactive) |  |
| O=C1C(Cl)C(c2cccc([N+](=O)[O-])c2)N1n1cnc2ccccc2c1=O (stereo not given) | 65.8 µM (inactive) | 55.2 µM (inactive) | 58.5 µM (inactive) | > 100 µM (inactive) | > 100 µM (inactive) | > 100 µM (inactive) | > 100 µM (inactive) | 50.9 µM (inactive) | > 100 µM (inactive) | > 100 µM (inactive) | > 10 µM (inactive) | 37.8 µM (inactive) | > 100 µM | 54.6 µM (inactive) | > 100 µM (inactive) |  | 19.1 µM (inactive) |  |
| COC(=O)c1cc2ccccc2c2nc3ccccc3c(Cl)c12 | 98.4 µM (inactive) | > 100 µM (inactive) |  | > 100 µM (inactive) | > 100 µM (inactive) | > 100 µM (inactive) | > 100 µM (inactive) |  | > 100 µM (inactive) | > 100 µM (inactive) | > 100 µM (inactive) | 87.1 µM (inactive) | > 100 µM | > 100 µM (inactive) | > 100 µM (inactive) | > 100 µM (inactive) | 51.8 µM (inactive) |  |
